US5270339A, “Phenoxybenzene derivative” (Kanagafuchi Kagaku Kogyo Kabushiki Kaisha, priority 1991, dated 1993)
Where a name gives a salt, the structure may show the parent alone.

Columns and labels:
[1] = test system: experimental amnesia in mice induced by cycloheximide; experiment: Anti-amnesic effect: passive avoidance task (step-through), cycloheximide-induced amnesia; assay type: in vivo, ddY male mice; settings: for Step-through latency: mean of group; for responders at 3 mg/kg / responders at 1 mg/kg: Mus musculus, mice with latency > 100 seconds, read-out: Ratio of memory
Experimental: As experimental animals, Wistar male rats and ddY male mice were used for the tests after they were housed for a week under every 12 hours' dark-light cycle at room temperature of 24° to 26° C.
The effect on experimental amnesia in mice induced by cycloheximide was evaluated.
The experiment was carried out using an experimental apparatus of passive avoidance task for mice (made by Ohara-ika-sangyo K. K.) comprising a box divided into the two compartments of dark and light. That is, the dark compartment [a box having a reverse trapezoid cross section (height: 8 cm, base line: 5 cm, oblique line: 9.5 cm) and having the length of 14 cm] was shield from a light with a black plastic case and was floored with stainless grids for giving an electrical shock so that an electricity might be turned on a determined time after interception of a photobeam placed in the dark compartment. The light compartment made of transparent plastic (a box of the same shape as that of the dark compartment having the length of 16 cm, lightened from a location spaced 25 cm above by a 60 W electric lamp) was provided adjacent to the dark compartment. Between the two compartments, there was provided a circular entrance having the diameter of 3 cm with a guillotine door which could be opened and closed. By using the above-mentioned dark-light box, the experiment was carried out according to the following procedure.
A mouse (5 week-old) previously conditioned in the dark-light box was put in the light compartment and the guillotine door was opened. Three seconds after the mouse moved into the dark compartment and interrupted the photobeam, 0.3 mA electrical shock was given to limbs for 3 seconds from the floor grid (aquisition trial). Just after the mouse rushed into the light compartment, the door was shut and the […] in the light compartment was picked out to return to his home cage. After 24 hours, the mouse was placed again in the light compartment and the period from the opening of the guillotine door to the time the mouse completely entered the dark compartment was recorded maximally 300 seconds as a step-through latency (retention trial).
The amnesia was induced by subcutaneous injection of cycloheximide (120 mg/kg) dissolved in saline 10 minutes before the aquisition trial. As a control, the same amount of saline alone was administered. […]
A ratio of number of mice showing the step-through latency of more than 100 seconds in the group was defined as a ratio of memory for convenience's sake.
The step-through latency in Table 2 was the mean value for each treated group.

[2] = Acute toxicity test, oral; assay type: in vivo, ddY male mice; settings: mouse, in vivo, ddY mice, 2 weeks observation
Experimental: With respect to the compounds 1 to 86 shown in Table 1 as test compounds, the acute toxicity was examined using ddY mice according to the following method.
In each group, six male ddY mice weighing 27 to 30 g were employed. The compounds 1 to 86 suspended in an aqueous solution of 0.5% sodium carboxymethylcellulose were administered orally in a volume of 0.1 ml/10 g body weight. […] The LD50 (mg/kg) values were estimated from the ratio of the number of dead mice to the number of mice used.

Compound | LD50 at 336 h [2] | also measured
COCCN1CCC(=Cc2cccc(Oc3ccccc3)c2)C1=O [Compound 23] | ≥ 500 mg/kg | Step-through latency ([1]; 3 mg/kg oral): 71 s; responders at 3 mg/kg ([1]; 3 mg/kg oral): 50%
C=CN1CCC(=Cc2cccc(Oc3ccccc3)c2)C1=O [Compound 21] | ≥ 500 mg/kg | 
O=C1NCC(c2ccccc2)C1=Cc1cccc(Oc2ccccc2)c1 (stereo not drawn) [Compound 62] | ≥ 500 mg/kg | Step-through latency ([1]; 3 mg/kg oral): 170 s; responders at 3 mg/kg ([1]; 3 mg/kg oral): 50%
O=C1NCCC1Cc1cccc(Oc2ccccc2)c1 (stereo not drawn) [Compound 81] | ≥ 500 mg/kg | Step-through latency ([1]; 1 mg/kg oral): 70 s; responders at 1 mg/kg ([1]; 1 mg/kg oral): 25%
O=C1C(=Cc2cccc(Oc3ccccc3)c2)CCN1c1ccc(F)cc1F [Compound 47] | ≥ 500 mg/kg | 
O=C1C(=Cc2cccc(Oc3ccccc3)c2)CCN1CCc1ccccc1 [Compound 51] | ≥ 500 mg/kg | 
CN(C)CCN1CCC(=Cc2cccc(Oc3ccccc3)c2)C1=O [Compound 40] | ≥ 500 mg/kg | Step-through latency ([1]; 1 mg/kg oral): 116 s; responders at 1 mg/kg ([1]; 1 mg/kg oral): 50%
CCC1NCCC1=Cc1cccc(Oc2ccccc2)c1 (stereo not drawn) [Compound 77] | ≥ 500 mg/kg | 
CC(=O)CN1CCC(=Cc2cccc(Oc3ccccc3)c2)C1=O [Compound 45] | ≥ 500 mg/kg | Step-through latency ([1]; 1 mg/kg oral): 169 s; responders at 1 mg/kg ([1]; 1 mg/kg oral): 50%
CCN1CCC(Cc2cccc(Oc3ccccc3)c2)C1 (stereo not drawn) [Compound 83] | ≥ 500 mg/kg | Step-through latency ([1]; 1 mg/kg oral): 188 s; responders at 1 mg/kg ([1]; 1 mg/kg oral): 100%
CCCCN1CCC(=Cc2cccc(Oc3ccccc3)c2)C1 [Compound 68] | ≥ 500 mg/kg | Step-through latency ([1]; 1 mg/kg oral): 179 s; responders at 1 mg/kg ([1]; 1 mg/kg oral): 75%
COc1ccc(NC(=O)N2CCC(=Cc3cccc(Oc4ccccc4)c3)C2=O)cc1 [Compound 31] | ≥ 500 mg/kg | Step-through latency ([1]; 3 mg/kg oral): 100 s; responders at 3 mg/kg ([1]; 3 mg/kg oral): 50%
CCCCN1CCC(=Cc2cccc(Oc3ccccc3)c2)C1=O [Compound 12] | ≥ 500 mg/kg | Step-through latency ([1]; 3 mg/kg oral): 152 s; responders at 3 mg/kg ([1]; 3 mg/kg oral): 63%
CCCCC1C(=Cc2cccc(Oc3ccccc3)c2)CCN1CC (stereo not drawn) [Compound 79] | ≥ 500 mg/kg | Step-through latency ([1]; 1 mg/kg oral): 168 s; responders at 1 mg/kg ([1]; 1 mg/kg oral): 50%
CCN1CCC(=Cc2cccc(Oc3ccc(C)cc3)c2)C1 [Compound 19] | ≥ 500 mg/kg | Step-through latency ([1]; 1 mg/kg oral): 177 s; responders at 1 mg/kg ([1]; 1 mg/kg oral): 75%
C(=C1CCN(CCOC2CCCCO2)C1)c1cccc(Oc2ccccc2)c1 (stereo not drawn) [Compound 70] | ≥ 500 mg/kg | 

Compound | LD50 at 336 h [2] | also measured
NC(=O)CCN1CCC(=Cc2cccc(Oc3ccccc3)c2)C1=O [Compound 33] | ≥ 500 mg/kg | 
CCOC(=O)N1CCC(=Cc2cccc(Oc3ccccc3)c2)C1 [Compound 72] | ≥ 500 mg/kg | 
NC(=O)N1CCC(=Cc2cccc(Oc3ccccc3)c2)C1=O [Compound 30] | ≥ 500 mg/kg | 
CCN1CCC(=Cc2ccc(Oc3ccccc3)cc2)C1 [Compound 18] | ≥ 500 mg/kg | 
O=C1C(=Cc2cccc(Oc3ccccc3)c2)CCN1C1CC1 [Compound 17] | ≥ 500 mg/kg | 
NCCN1CCC(=Cc2cccc(Oc3ccccc3)c2)C1=O [Compound 39] | ≥ 500 mg/kg | 
C1=Cc2cccc(OCC3CNCCO3)c2C1 (stereo not drawn) [Indeloxazine hydrochloride, reference compound] |  | Step-through latency ([1]; 3 mg/kg oral): 131 s; responders at 3 mg/kg ([1]; 3 mg/kg oral): 43%
CCN1CCC(=Cc2cccc(Oc3ccc(C)cc3)c2)C1=O [Compound 15] | ≥ 500 mg/kg | 
O=C1C(=Cc2cccc(Oc3ccccc3)c2)CCN1CCCl [Compound 27] | ≥ 500 mg/kg | 
Cc1ccc(Oc2cccc(C=C3CCNC3=O)c2)cc1 [Compound 4] | ≥ 500 mg/kg | 
O=C1C(=Cc2cccc(Oc3ccccc3)c2)CCN1CCO [Compound 25] | ≥ 500 mg/kg | 
CC1CNC(=O)C1=Cc1cccc(Oc2ccccc2)c1 (stereo not drawn) [Compound 60] | ≥ 500 mg/kg | 
CNC(=O)CN1CCC(=Cc2cccc(Oc3ccccc3)c2)C1=O [Compound 34] | ≥ 500 mg/kg | 
CCN1C(=O)C(=Cc2cccc(Oc3ccccc3)c2)CC1O (stereo not drawn) [Compound 54] | ≥ 500 mg/kg | 
O=C(O)CN1CCC(=Cc2cccc(Oc3ccccc3)c2)C1=O [Compound 29] | ≥ 500 mg/kg | 
